Experimental findings from ChEMBL document CHEMBL1122606, “cis-4-[[[(2-Chloroethyl)nitrosoamino]carbonyl]methylamino] cyclohexanecarboxylic acid, a nitrosourea with latent activity against an experimental solid tumor” (J Med Chem, 1984) are described below.

Data set [1] can be described thus: Half life period in phosphate buffer (pH 7.4). The data set is classed as ADME.
For a further data set, the species on record is Mus musculus. The experiment in a line: Dose showing lethal effects on 10% of the mice bearing lewis lung tumors. Format: functional.

Compound `O=NN(CCCl)C(=O)NC1CCC(C(=O)O)CC1` (centres undefined) showed a half-life in data set [1] of 46 h. In the data set filed under Mus musculus, this compound gave an LD10 of 26 mg/kg.

For the compound `CN(C(=O)N(CCCl)N=O)C1CCC(C(=O)O)CC1` (centres undefined), the half-life in data set [1] is 4.5 h. In addition, the LD10 in the data set listed under Mus musculus is >400 mg/kg.
